From patent US10434111B2, “Compositions and methods for modification of biomolecules” (THE REGENTS OF THE UNIVERSITY OF CALIFORNIA, priority 2004, dated 2019)

Assays:
[1] = Stability of cyclooctyne 3 to acid, base and biological nucleophiles; type: physicochemical
Experimental: [drawing 31] by Reese and Shaw. Reese and Shaw (1970) Chem. Comm. 1172-1173. Briefly, compound 1 (Skattebol and Solomon, supra) was treated with silver perchlorate to effect electrocyclic ring opening to the trans-allylic cation, which was captured with methyl hydroxymethylbenzoate to afford bromo-trans-cyclooctene 2. Base-mediated elimination of the vinyl bromide followed by saponification yielded versatile intermediate 3, to which any biological probe can be attached. Finally, compound 3 was coupled to biotin analog 4 (Wilbur et al. (1996) Bioconj. Chem. 7:689-702) bearing a PEG linker, providing target 5. Cyclooctyne 3 was stable to mild acid (0.5 N HCl for 30 min), base (0.8 M NaOMe for 30 min), and prolonged exposure to biological nucleophiles such as thiols (120 mM 2-mercaptoethanol for 12 h).

[2] = Kinetic evaluation of [3+2] cycloaddition of cyclooctyne probes with 2-azidoethanol (1H NMR); type: physicochemical; conditions: HOCH2CH2N3, CD3CN/PBS (55:45), 22° C.
Experimental: (§1) Stock solutions of cyclooctynes 3a and 3b (50 mM), benzyl azide (500 mM) and 2-azidoethanol (500 mM) were made in either CD3CN or a 55:45 mixture of CD3CN and deuterated Dulbecco's phosphate-buffered saline (pH 7.4, made with D2O). Gentle heating and/or sonication in a H2O bath was required to fully dissolve 3a and 3b. An NMR tube was charged with 450 μL of either 3a or 3b, and 50 μL of either benzyl azide or 2-azidoethanol, and the reaction was monitored over time using ^1H NMR spectroscopy.
(§2) In the case of the reactions of 3a and 3b with benzyl azide, the kinetic data were derived by monitoring the change in integration of resonances corresponding to the benzylic protons in benzyl azide (δ˜4.2 ppm) compared to the corresponding resonances of the triazole products (δ ˜5.0 to 5.5 ppm). […]
(§3) Second-order rate constants for the reaction were determined by plotting 1/[benzyl azide] versus time in the case of the reactions of 3a and 3b with benzyl azide and by plotting 1/[3a] versus time or 1/[3b] versus time in the case of the reactions of 3a and 3b with 2-azidoethanol, and subsequent analysis by linear regression. Second-order rate constants correspond to one half of the determined slope (Table 1). […]

[3] = Kinetic evaluation of [3+2] cycloaddition of cyclooctyne probes with benzyl azide (1H NMR); type: physicochemical; conditions: PhCH2N3, CD3CN, 22° C.
Experimental: as §1, §2, §3

azide-labeled GlyCAM-Ig = molecular target: T1, azide-labeled GlyCAM-Ig (Mus musculus, UniProt Q02596); assay: Western blot analysis of azide-labeled GlyCAM-Ig; type: biochemical; conditions: for labeling (biotinylation) of GlyCAM-Ig modified with SiaNAz: 250 μM probe alone, overnight at rt, no copper catalysis
T1 construct: made in house; host or cells: CHO cells grown with Ac4ManNAz
T1 sequence (Q02596 20-151): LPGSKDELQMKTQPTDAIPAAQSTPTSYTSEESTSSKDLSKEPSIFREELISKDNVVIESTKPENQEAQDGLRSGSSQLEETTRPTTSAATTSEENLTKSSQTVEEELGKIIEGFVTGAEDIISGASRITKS
Experimental: For Western blot analysis of azide-labeled and unlabeled GlyCAM-Ig, samples were incubated with 5 (250 μM final concentration in PBS, pH 7.4 containing 0.7% DMF), 6 (250 μM final concentration in PBS, pH 7.4 containing either 0.7% DMF) or left untreated for 12 h. To verify that 6 could react with azide-labeled GlyCAM-Ig via copper-mediated [3+2] cycloaddition, a modified version of the method reported by Speers and Cravatt was employed. Speers and Cravatt (2004) Chem. Biol. 11:535-46. Briefly, GlyCAM-Ig samples (in PBS, pH 7.4 containing 0.7% DMF) were incubated with 250 μM 6, 2.5 mM TCEP, 250 μM tris-triazolyl ligand (from a 1.7 mM stock in 1:4 DMSO:tert-butanol), and 2.5 mM CuSO4. Samples were vortexed and allowed to react at rt for 12 h. Prior to electrophoresis, samples were incubated with an equal volume of 100 mM 2-azidoethanol in 2×SDS-PAGE loading buffer for 8 h at rt (to quench unreacted 5 or 6). The quenched samples were boiled for 3 min and loaded onto precast polyacrylamide gels. After electrophoresis, the samples were electroblotted to nitrocellulose membrane. The membrane was blocked using 5% BSA in PBS (pH 7.4, containing 0.05% Tween 20 (blocking buffer A) for 1 h at rt, then incubated with a solution of blocking buffer A containing HRP-α-biotin (1:250,000 dilution, 1 h at rt). The membrane was washed, and detection of membrane-bound anti-biotin-HRP was accomplished by chemiluminescence. Following detection, the membrane was rinsed with PBS (pH 7.4) containing 0.05% Tween (PBS-T) and placed in stripping buffer (15 min at RT) to remove bound anti-biotin Ig. The membrane was thoroughly rinsed with PBS-T and probed for residual anti-biotin signal by chemiluminescence.
The membrane was washed and re-blocked with 5% low-fat dry powdered milk (blocking buffer B) for 1 h at rt. The membrane was then incubated with HRP-α-Ig (1:5000 in blocking buffer B) for 1 h at rt. The membrane was washed again with PBS-T, and detection of membrane bound anti-human Ig was accomplished as for peroxidase-conjugated anti-biotin. Control samples were treated in an identical manner, except that specific reagents were replaced by buffer where appropriate.
FIG. 2. Labeling of azide-modified GlyCAM-Ig with alkyne probes. Purified GlyCAM-Ig was treated with buffer (−), 250 μM 5, or 250 μM 6 alone or in the presence (cat) of CuSO4, TCEP, and a triazolyl ligand, overnight at rt. Reaction mixtures were quenched with 2-azidoethanol and analyzed by Western blot probing with HRP-α-biotin (upper panel). The blot was then stripped and reprobed with HRP-α-Ig (lower panel).

Jurkat cells [4] = assay: Cell surface azide labeling and detection, Jurkat cells, FITC-avidin flow cytometry; type: cell-based, human
Experimental: Jurkat cells were seeded at a density of 1.5-2.0×10^5 cells/mL and incubated for 3 d in untreated media or media containing various concentrations of Ac4ManNAz. […] Cells were then incubated with 5 or a biotinylated phosphine probe (Vocadlo et al. (2003) Proc. Natl. Acad. Sci. U.S.A. 100:9116-21) in labeling buffer containing 2.8% DMF or labeling buffer plus 2.8% DMF alone. […] Following a 10-min incubation on ice (in the dark), cells were washed with 200 μL of cold labeling buffer and the FITC-avidin staining procedure was repeated.
FIGS. 3A and 3B. Cell surface labeling with compound 5. Jurkat cells were incubated in the presence (+Az) or absence (−Az) of 25 μM Ac4ManNAz for 3 d. FIG. 3A. The cells were reacted with various concentrations of 5 for 1 h at rt and treated with FITC-avidin; mean fluorescence intensity (MFI) was determined by flow cytometry. FIG. 3B. The cells were incubated with 250 μM 5 for various durations at rt and analyzed as in A. C. The cells were incubated with 100 μM probe for 1 h at rt and analyzed as in A. Error bars represent the standard deviation from three replicates. AU=arbitrary fluorescence units.

Jurkat cells [5] = system: Jurkat cells

In the case of `O=C(O)c1ccc(COC2C#CCCCCC2)cc1` (stereo not drawn) [Compound 3], the “stability to biological nucleophiles such as thiols” value ([1]; 120 mM 2-mercaptoethanol for 12 h) was “stable”, the “stability to mild acid” value ([1]; 0.5 N HCl for 30 min) was “stable” and the stability to base ([1]; 0.8 M NaOMe for 30 min) was “stable”.

For `O=C(O)c1ccc(CC2C#CCCCCC2)cc1` (stereo not drawn) [Compound 3a, 4-Cyclooct-2-ynylmethylbenzoic acid], the “k, second-order rate constant for the [3 + 2] cycloaddition” value (from here on “k, second-order rate constant”) [2] was 0.0011 M⁻¹ s⁻¹ and the “k, second-order rate constant” value [3] was 0.0012 M⁻¹ s⁻¹.

With `O=C(O)c1ccc(CC2(F)C#CCCCCC2)cc1` (stereo not drawn) [Compound 3b, 4-(1-Fluoro-cyclooct-2-ynylmethyl)benzoic acid] the “k, second-order rate constant” value [2] was 0.004 M⁻¹ s⁻¹ and the “k, second-order rate constant” value [3] was 0.0042 M⁻¹ s⁻¹.

With `O=C(CCCC[C@@H]1SC[C@@H]2NC(=O)N[C@@H]21)NCCCOCCOCCOCCCNC(=O)c1ccc(COC2C#CCCCCC2)cc1` (stereo partly drawn) [Compound 5] the “labeling (biotinylation) of GlyCAM-Ig modified with SiaNAz” value (azide-labeled GlyCAM-Ig; HRP-α-biotin blot) was “Robust biotinylation”, the “labeling of native GlyCAM-Ig lacking azides” value (azide-labeled GlyCAM-Ig; 250 μM probe overnight, HRP-α-biotin blot) was “no background labeling” and the “dependence of cell surface reaction on incubation time” value (Jurkat cells [4]; Jurkat +Az, 250 μM probe for various durations at rt) was “dependent on duration of incubation”. The “effects on cell viability” value (Jurkat cells [4]; Jurkat cells treated with probe) was “No negative effects”, the “labeling of cells lacking azides” value (Jurkat cells [4]; Jurkat grown without Ac4ManNAz) was “No detectable labeling” and the “fluorescence of cells displaying azides upon treatment with the cyclooctyne probe” value (Jurkat cells [4]; Jurkat, 25 μM Ac4ManNAz 3 d, various concentrations of probe, rt, FITC-avidin) was “dose-dependent increase in fluorescence”.

For `C#CCCC(=O)NCCCOCCOCCOCCCNC(=O)CCCC[C@@H]1SC[C@@H]2NC(=O)N[C@@H]21` [Compound 6], the “labeling (biotinylation) of GlyCAM-Ig modified with SiaNAz” value (azide-labeled GlyCAM-Ig; HRP-α-biotin blot) was “no glycoprotein labeling”, the “labeling of the azide-modified glycoprotein with copper catalysis” value (azide-labeled GlyCAM-Ig; 250 μM probe plus CuSO4, TCEP and a triazolyl ligand) was “facile labeling” and the “anti-IgG immunoreactivity of labeled azide-modified GlyCAM-Ig” value (azide-labeled GlyCAM-Ig; in the presence of copper, blot reprobed with HRP-α-IgG) was “consistently diminished”.

In the case of `O=C(CCCC[C@@H]1SC[C@@H]2NC(=O)N[C@@H]21)NCCCOCCOCCOCCCNC(=O)COC1CCC#CC(F)(F)CC1` (stereo partly drawn) [DIFO-biotin], the “labeling of azide-containing membrane-associated glycans in live cells” value (Jurkat cells [5]; 0 or 25 μM Ac4ManNAz 3 days, probe 1 h, FITC-avidin) was “selectively label” and the “sensitivity of azide detection compared to a nonfluorinated cyclooctyne or a phosphine capable of Staudinger ligation” value (Jurkat cells [5]; 100 μM probes, 1 h) was “much higher”.
